Results as given in US9777000B2, “Pyrazole derivative” (MOCHIDA PHARMACEUTICAL CO., LTD., priority 2013, dated 2017).

molecular target: human PDE10 (Homo sapiens (Human), UniProt Q9Y233); assay: Evaluation of enzyme inhibitory activity: human PDE10 inhibitory effect (IMAP TR-FRET); assay type: biochemical; details: cAMP substrate
Procedure: (Evaluation of Enzyme Inhibitory Activity: Human PDE10 Inhibitory Effect)
IMAP TR-FRET Phosphodiersterase Evaluation Assay Kit (Molecular Device) was used for the measurement. Ten μL of a diluted test compound having each concentration and 5 μL of the enzyme PDE10 (BPA Bioscience) that had been diluted to 2 ng/mL with 1×IMAP Reaction Buffer (prepared with 5×included with the kit, 10 mM Tris-HCl, pH=7.2, 10 mM MgCl2, 0.05% NaN3, and 0.1% BSA) containing 0.1% BSA were added to a 384-well plate (Corning). The obtained mixture was then pre-incubated at room temperature for 5 minutes. Thereafter, 5 μL of cAMP substrate solution which was included with the kit and diluted to 400 nM with 1×IMAP Reaction Buffer containing 0.1% BSA, was added to the reaction solution, and the obtained mixture was reacted at room temperature for 60 minutes. Thereafter, 60 μL of an IMAP TR-FRET Binding solution included with the kit was further added to the reaction solution, and the obtained mixture was then left for 3 hours or more. Subsequently, using ARVO SX (PerkinElmer), the fluorescent intensity of Terbium (Emission=490 nm) and TR-FRET (Emission=520 nm) in the reaction solution were measured at an excitation wavelength of 340 nm, so as to calculate the amount of the generated 5′-AMP. The count of a well to which a solvent had been added instead of the test compound was set at 0%, and the count of a well to which the enzyme PDE10 had not been added was set at 100%. Thus, the inhibitory activity of each test compound was calculated.
The PDE10 inhibitory activity of the test compound was indicated with an IC50 value. […] The test compounds are shown in Table 3 (Table 3-1 and Table 3-2).

Chain of human PDE10 (Q9Y233 whole entry): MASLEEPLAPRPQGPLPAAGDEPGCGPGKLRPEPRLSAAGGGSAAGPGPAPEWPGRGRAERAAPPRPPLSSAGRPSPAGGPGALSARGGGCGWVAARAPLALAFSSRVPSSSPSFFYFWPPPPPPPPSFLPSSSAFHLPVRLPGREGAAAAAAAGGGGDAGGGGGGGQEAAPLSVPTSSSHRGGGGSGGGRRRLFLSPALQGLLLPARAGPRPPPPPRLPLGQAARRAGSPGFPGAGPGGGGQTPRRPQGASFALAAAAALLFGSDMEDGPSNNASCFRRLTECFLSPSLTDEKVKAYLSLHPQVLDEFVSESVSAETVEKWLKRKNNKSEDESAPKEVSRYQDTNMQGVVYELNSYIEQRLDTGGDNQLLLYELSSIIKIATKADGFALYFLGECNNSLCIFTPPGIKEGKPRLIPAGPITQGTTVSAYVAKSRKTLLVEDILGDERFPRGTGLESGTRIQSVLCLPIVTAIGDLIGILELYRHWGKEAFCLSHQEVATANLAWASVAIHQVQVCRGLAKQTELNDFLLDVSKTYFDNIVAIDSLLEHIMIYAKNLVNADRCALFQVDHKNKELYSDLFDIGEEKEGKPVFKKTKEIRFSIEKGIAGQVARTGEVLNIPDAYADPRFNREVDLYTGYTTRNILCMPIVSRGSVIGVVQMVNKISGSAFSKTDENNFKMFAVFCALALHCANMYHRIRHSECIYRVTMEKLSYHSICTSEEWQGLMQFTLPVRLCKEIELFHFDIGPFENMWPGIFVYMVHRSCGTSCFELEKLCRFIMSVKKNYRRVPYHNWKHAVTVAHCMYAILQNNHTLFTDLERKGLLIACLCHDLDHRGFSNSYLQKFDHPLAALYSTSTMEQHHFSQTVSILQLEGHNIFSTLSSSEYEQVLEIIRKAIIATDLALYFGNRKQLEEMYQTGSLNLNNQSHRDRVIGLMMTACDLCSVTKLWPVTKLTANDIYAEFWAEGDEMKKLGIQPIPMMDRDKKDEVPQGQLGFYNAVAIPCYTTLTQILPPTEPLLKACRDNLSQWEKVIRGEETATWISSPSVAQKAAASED

IC50, < 5 nM:
Cc1ccc(-c2cnn(C)c2C(=O)Nc2ccn3cc(-c4ccccc4)nc3c2)nc1 [Example 1.1, 1-methyl-4-(5-methylpyridin-2-yl)-N-(2-phenylimidazo[1,2-a]pyridin-7-yl)-1H-pyrazole-5-carboxamide]
Cc1csc(-c2cnn(C)c2C(=O)Nc2ccn3cc(-c4ccccc4)nc3c2)n1 [Example 1.2, 1-methyl-4-(4-methylthiazol-2-yl)-N-(2-phenylimidazo[1,2-a]pyridin-7-yl)-1H-pyrazole-5-carboxamide]
Cn1ncc(-c2nc(C(F)F)cs2)c1C(=O)Nc1ccn2cc(-c3ccccc3)nc2c1 [Example 1.3, 4-(4-(difluoromethyl)thiazol-2-yl)-1-methyl-N-(2-phenylimidazo[1,2-a]pyridin-7-yl)-1H-pyrazole-5-carboxamide]
Cc1sc(-c2cnn(C)c2C(=O)Nc2ccn3cc(-c4ccccc4)nc3c2)nc1C(F)F [Example 1.4, 4-(4-(difluoromethyl)-5-methylthiazol-2-yl)-1-methyl-N-(2-phenylimidazo[1,2-a]pyridin-7-yl)-1H-pyrazole-5-carboxamide]
Cn1ncc(-c2nc(C(F)(F)F)cs2)c1C(=O)Nc1ccn2cc(-c3ccccc3)nc2c1 [Example 1.5, 1-methyl-N-(2-phenylimidazo[1,2-a]pyridin-7-yl)-4-(4-(trifluoromethyl)thiazol-2-yl)-1H-pyrazole-5-carboxamide]
Cn1ncc(-c2cccc(C(F)(F)F)n2)c1C(=O)Nc1ccn2cc(-c3ccccc3)nc2c1 [Example 1.6, 1-methyl-N-(2-phenylimidazo[1,2-a]pyridin-7-yl)-4-(6-(trifluoromethyl)pyridin-2-yl)-1H-pyrazole-5-carboxamide]
Cn1ncc(-c2nc(C(F)F)c(Cl)s2)c1C(=O)Nc1ccn2cc(-c3ccccc3)nc2c1 [Example 1.7, 4-(5-chloro-4-(difluoromethyl)thiazol-2-yl)-1-methyl-N-(2-phenylimidazo[1,2-a]pyridin-7-yl)-1H-pyrazole-5-carboxamide]
Cn1ncc(-c2nc(C(F)(F)F)cs2)c1C(=O)NC1CCn2cc(-c3ccccc3)nc2C1 (stereo not drawn) [Example 2.3, 1-methyl-N-(2-phenyl-5,6,7,8-tetrahydroimidazo[1,2-a]pyridin-7-yl)-4-(4-(trifluoromethyl)thiazol-2-yl)-1H-pyrazole-5-carboxamide]
Cn1ncc(-c2nc(C(F)F)cs2)c1C(=O)NC1CCn2cc(-c3ccccc3)nc2C1 (stereo not drawn) [Example 2.4, 4-(4-(difluoromethyl)thiazol-2-yl)-1-methyl-N-(2-phenyl-5,6,7,8-tetrahydroimidazo[1,2-a]pyridin-7-yl)-1H-pyrazole-5-carboxamide]
Cn1ncc(-c2nc(C(F)F)c(Cl)s2)c1C(=O)NC1CCn2cc(-c3ccccc3)nc2C1 (stereo not drawn) [Example 2.5, 4-(5-chloro-4-(difluoromethyl)thiazol-2-yl)-1-methyl-N-(2-phenyl-5,6,7,8-tetrahydroimidazo[1,2-a]pyridin-7-yl)-1H-pyrazole-5-carboxamide]
Cc1sc(-c2cnn(C)c2C(=O)NC2CCn3cc(-c4ccccc4)nc3C2)nc1C(F)F (stereo not drawn) [Example 2.6, 4-(4-(difluoromethyl)-5-methylthiazol-2-yl)-1-methyl-N-(2-phenyl-5,6,7,8-tetrahydroimidazo[1,2-a]pyridin-7-yl)-1H-pyrazole-5-carboxamide]
Cn1ncc(-c2nc(C(F)(F)F)cs2)c1C(=O)NC1CCn2cc(-c3cccc(F)c3)nc2C1 (stereo not drawn) [Example 2.8, N-(2-(3-fluorophenyl)-5,6,7,8-tetrahydroimidazo[1,2-a]pyridin-7-yl)-1-methyl-4-(4-(trifluoromethyl)thiazol-2-yl)-1H-pyrazole-5-carboxamide]
Cc1cccc(-c2cnn(C)c2C(=O)NC2CCn3cc(-c4ccccc4)nc3C2)n1 (stereo not drawn) [Example 2.9, 1-methyl-4-(6-methylpyridin-2-yl)-N-(2-phenyl-5,6,7,8-tetrahydroimidazo[1,2-a]pyridin-7-yl)-1H-pyrazole-5-carboxamide]
COc1cccc(-c2cnn(C)c2C(=O)NC2CCn3cc(-c4ccccc4)nc3C2)n1 (stereo not drawn) [Example 2.11, 4-(6-methoxypyridin-2-yl)-1-methyl-N-(2-phenyl-5,6,7,8-tetrahydroimidazo[1,2-a]pyridin-7-yl)-1H-pyrazole-5-carboxamide]
Cc1nc(-c2cnn(C)c2C(=O)NC2CCn3cc(-c4ccccc4)nc3C2)cs1 (stereo not drawn) [Example 2.12, 1-methyl-4-(2-methylthiazol-4-yl)-N-(2-phenyl-5,6,7,8-tetrahydroimidazo[1,2-a]pyridin-7-yl)-1H-pyrazole-5-carboxamide]
Cc1cncc(-c2cnn(C)c2C(=O)NC2CCn3cc(-c4ccccc4)nc3C2)n1 (stereo not drawn) [Example 2.13, 1-methyl-4-(6-methylpyrazin-2-yl)-N-(2-phenyl-5,6,7,8-tetrahydroimidazo[1,2-a]pyridin-7-yl)-1H-pyrazole-5-carboxamide]
CC(C)c1nsc(-c2cnn(C)c2C(=O)NC2CCn3cc(-c4ccccc4)nc3C2)n1 (stereo not drawn) [Example 2.14, 4-(3-isopropyl-1,2,4-thiadiazol-5-yl)-1-methyl-N-(2-phenyl-5,6,7,8-tetrahydroimidazo[1,2-a]pyridin-7-yl)-1H-pyrazole-5-carboxamide]
Cc1cnc(-c2cnn(C)c2C(=O)NC2CCn3cc(-c4ccccc4)nc3C2)s1 (stereo not drawn) [Example 2.15, 1-methyl-4-(5-methylthiazol-2-yl)-N-(2-phenyl-5,6,7,8-tetrahydroimidazo[1,2-a]pyridin-7-yl)-1H-pyrazole-5-carboxamide]
Cn1ncc(-c2nc(C(F)(F)F)cs2)c1C(=O)NC1CCn2c(nc(-c3ccccc3)c2F)C1 (stereo not drawn) [Example 2.19, N-(3-fluoro-2-phenyl-5,6,7,8-tetrahydroimidazo[1,2-a]pyridin-7-yl)-1-methyl-4-(4-(trifluoromethyl)thiazol-2-yl)-1H-pyrazole-5-carboxamide]
Cc1ccnc(-c2cnn(C)c2C(=O)NC2CCn3cc(-c4ccccc4)nc3C2)c1 (stereo not drawn) [Example 2.22, 1-methyl-4-(4-methylpyridin-2-yl)-N-(2-phenyl-5,6,7,8-tetrahydroimidazo[1,2-a]pyridin-7-yl)-1H-pyrazole-5-carboxamide]
Cn1ncc(-c2nc(C(F)F)cs2)c1C(=O)NC1CCn2cc(-c3ccc(F)cc3)nc2C1 (stereo not drawn) [Example 2.28, 4-(4-(difluoromethyl)thiazol-2-yl)-N-(2-(4-fluorophenyl)-5,6,7,8-tetrahydroimidazo[1,2-a]pyridin-7-yl)-1-methyl-1H-pyrazole-5-carboxamide]
Cn1ncc(-c2nc(C(F)(F)F)cs2)c1C(=O)NC1CCn2cc(-c3ccc(F)cc3)nc2C1 (stereo not drawn) [Example 2.29, N-(2-(4-fluorophenyl)-5,6,7,8-tetrahydroimidazo[1,2-a]pyridin-7-yl)-1-methyl-4-(4-(trifluoromethyl)thiazol-2-yl)-1H-pyrazole-5-carboxamide]
Cn1ncc(-c2nc(C(F)(F)F)cs2)c1C(=O)Nc1cc2nc(-c3ccccc3)nn2cc1F [Example 3.6, N-(6-fluoro-2-phenyl-[1,2,4]triazolo[1,5-a]pyridin-7-yl)-1-methyl-4-(4-(trifluoromethyl)thiazol-2-yl)-1H-pyrazole-5-carboxamide]
COc1cccnc1-c1cnn(C)c1C(=O)Nc1cc2nc(-c3ccccc3)nn2cc1F [Example 3.7, N-(6-fluoro-2-phenyl-[1,2,4]triazolo[1,5-a]pyridin-7-yl)-4-(3-methoxypyridin-2-yl)-1-methyl-1H-pyrazole-5-carboxamide]
Cn1ncc(-c2ccc(F)cn2)c1C(=O)Nc1cc2nc(-c3ccccc3)nn2cc1F [Example 3.8, N-(6-fluoro-2-phenyl-[1,2,4]triazolo[1,5-a]pyridin-7-yl)-4-(5-fluoropyridin-2-yl)-1-methyl-1H-pyrazole-5-carboxamide]
Cc1cncc(-c2cnn(C)c2C(=O)Nc2cc3nc(-c4ccccc4)nn3cc2F)n1 [Example 3.9, N-(6-fluoro-2-phenyl-[1,2,4]triazolo[1,5-a]pyridin-7-yl)-1-methyl-4-(6-methylpyrazin-2-yl)-1H-pyrazole-5-carboxamide]
Cc1cc(C)nc(-c2cnn(C)c2C(=O)Nc2cc3nc(-c4ccccc4)nn3cc2F)c1 [Example 3.11, 4-(4,6-dimethylpyridin-2-yl)-N-(6-fluoro-2-phenyl-[1,2,4]triazolo[1,5-a]pyridin-7-yl)-1-methyl-1H-pyrazole-5-carboxamide]
